These results are taken from patent EP0249401A1, “Antianemic agent” (YAMANOUCHI PHARMACEUTICAL CO. LTD., priority 1986, dated 1987).

The data set can be described thus: Acute toxicity (LD50) on intraperitoneal injection into mice. Particulars: mouse, in vivo, ip.

As a reminder, the LD50 is the dose expected to kill half of the subjects tested. A lower LD50 goes with greater toxicity.

Take `CC(C)OC(=O)CNC(=O)[C@H](CS)NC(=O)CC[C@H](N)C(=O)O` [isopropyl ester, isopropyl y-L-glutamyl-L-cysteinylglycinate]: the LD50 is around 5300 mg/kg.
